Values joined by “and” are separate entries in the source; they are usually repeats but may differ in a detail not shown here. Equal entries are not always repeated. Toxic doses and inconclusive results are not listed.
Test system: BDF1 mice, B16 melanoma ip, median survival T/C
Test: NCI In Vivo Anticancer Drug Screen. Data for tumor model B16 Melanoma (intraperitoneal) in B6D2F1 (BDF1) mice
Conditions: endpoint: median survival time, higher = longer survival
How it was run: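 Read-out: survival or tumor size, given as treated/control ratio. Controls received vehicle only; animals bore transplantable tumors.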

[1] = dose: 100.0 mg/kg/injection, schedule: Q01DX009 (ip), vehicle: Klucel (hydroxypropylcellulose) (HPC)
[2] = dose: 50.0 mg/kg/injection, schedule: Q01DX009 (ip), vehicle: Klucel (hydroxypropylcellulose) (HPC)
[3] = dose: 6.25 mg/kg/injection, schedule: Q01DX009 (ip), vehicle: saline with Tween-80
[4] = dose: 12.5 mg/kg/injection, schedule: Q01DX009 (ip), vehicle: saline with Tween-80
[5] = dose: 25.0 mg/kg/injection, schedule: Q01DX009 (ip), vehicle: saline with Tween-80
[6] = dose: 10.0 mg/kg/injection, schedule: Q01DX009 (ip), vehicle: saline
[7] = dose: 20.0 mg/kg/injection, schedule: Q01DX009 (ip), vehicle: saline
[8] = dose: 100.0 mg/kg/injection, schedule: Q04DX003 (ip), vehicle: Klucel (hydroxypropylcellulose) (HPC)
[9] = dose: 200.0 mg/kg/injection, schedule: Q04DX003 (ip), vehicle: Klucel (hydroxypropylcellulose) (HPC)
[10] = dose: 400.0 mg/kg/injection, schedule: Q04DX003 (ip), vehicle: Klucel (hydroxypropylcellulose) (HPC)
[11] = dose: 200.0 mg/kg/injection, schedule: Q01DX009 (ip), vehicle: Klucel (hydroxypropylcellulose) (HPC)
[12] = dose: 25.0 mg/kg/injection, schedule: Q01DX009 (ip), vehicle: Klucel (hydroxypropylcellulose) (HPC)

In the case of CC1CCC2N(C1)CC1C(C(O)C(O)C3(O)C1CC14OC5(O)C(O)CCC1(C)C5CC(O)C34)C2(C)O (centres undefined), the T/C (dose: 16.25 mg/kg/injection, schedule: Q01DX009 (ip), vehicle: saline) is reported as 100 % of control, the T/C (dose: 37.5 mg/kg/injection, schedule: Q01DX009 (ip), vehicle: saline) is reported as 102 % of control and the T/C (dose: 65.0 mg/kg/injection, schedule: Q01DX009 (ip), vehicle: saline) is reported as 100 % of control. The T/C (dose: 130.0 mg/kg/injection, schedule: Q01DX009 (ip), vehicle: saline) was 104 % of control.

For COc1cccc2c1C(=O)c1c(O)c3c(c(O)c1C2=O)C[C@@](O)(/C(CO)=N/NC(=O)c1ccc(Cl)c(Cl)c1)C[C@@H]3OC1CC(N)C(O)C(C)O1 (some centres undefined), the T/C (dose: 2.5 mg/kg/injection, schedule: Q01DX001 (ip), vehicle: other) was 119 % of control, the T/C (dose: 10.0 mg/kg/injection, schedule: Q01DX001 (ip), vehicle: water) was 111 % of control and 252 % of control and the T/C (dose: 20.0 mg/kg/injection, schedule: Q01DX001 (ip), vehicle: other) was 247 % of control. For the same compound, the T/C (dose: 20.0 mg/kg/injection, schedule: Q01DX001 (ip), vehicle: water) was 102 % of control, the T/C (dose: 40.0 mg/kg/injection, schedule: Q01DX001 (ip), vehicle: water) was 250 % of control and the T/C (dose: 80.0 mg/kg/injection, schedule: Q01DX001 (ip), vehicle: water) was 105 % of control.

C[C@@H]1CCC[C@@H](NC(=O)N(CCCl)N=O)C1 was tested, and the T/C (dose: 4.7 mg/kg/injection, schedule: Q01DX009 (ip), vehicle: Klucel (hydroxypropylcellulose) (HPC)) was 103 % of control, the T/C (dose: 18.7 mg/kg/injection, schedule: Q01DX009 (ip), vehicle: Klucel (hydroxypropylcellulose) (HPC)) was 210 % of control and the T/C (dose: 18.75 mg/kg/injection, schedule: Q01DX009 (ip), vehicle: Klucel (hydroxypropylcellulose) (HPC)) was 192 % of control. The T/C (dose: 37.5 mg/kg/injection, schedule: Q01DX009 (ip), vehicle: Klucel (hydroxypropylcellulose) (HPC)) was 103 % of control and 229 % of control.

CCCCC(C=O)(C=C=C(C)C)CC (centres undefined) was tested, and the T/C (dose: 100.0 mg/kg/injection, schedule: Q04DX003 (ip), vehicle: saline with Tween-80) was 88 % of control and the T/C (dose: 200.0 mg/kg/injection, schedule: Q04DX003 (ip), vehicle: saline with Tween-80) was 95 % of control.

For Cc1cc(NC(=O)NCc2ccc(N3C(N)=NC(N)=NC3(C)C)cc2)ccc1S(=O)(=O)F, the T/C (dose: 25.0 mg/kg/injection, schedule: Q04DX003 (ip), vehicle: saline) was 97 % of control, the T/C (dose: 50.0 mg/kg/injection, schedule: Q04DX003 (ip), vehicle: saline) was 109 % of control and the T/C (dose: 400.0 mg/kg/injection, schedule: Q04DX003 (ip), vehicle: saline) was 122 % of control.

In the case of ClC1=C(Cl)C(Cl)(Cl)C(Cl)(Cl)C1(Cl)Cl, the T/C [1] is reported as 103 % of control.

For CC(=O)C(C)(NCc1ccccc1)c1ccccc1 (centres undefined), the T/C [2] was 86 % of control and the T/C [1] was 89 % of control.

For CCN(CC)CCOC(=O)c1cccnc1, the T/C (dose: 25.0 mg/kg/injection, schedule: Q01DX009 (ip), vehicle: saline) was 100 % of control, the T/C (dose: 50.0 mg/kg/injection, schedule: Q01DX009 (ip), vehicle: saline) was 105 % of control and the T/C (dose: 100.0 mg/kg/injection, schedule: Q01DX009 (ip), vehicle: saline) was 102 % of control. The T/C (dose: 200.0 mg/kg/injection, schedule: Q01DX009 (ip), vehicle: saline) was 102 % of control and the T/C (dose: 400.0 mg/kg/injection, schedule: Q01DX009 (ip), vehicle: saline) was 100 % of control.

For O=C(Nc1cc(Cl)ccc1Cl)c1ccc(Cl)cc1Cl, the T/C [3] was 97 % of control, the T/C (dose: 6.25 mg/kg/injection, schedule: Q04DX003 (ip), vehicle: saline with Tween-80) was 92 % of control and the T/C [4] was 93 % of control. The T/C (dose: 12.5 mg/kg/injection, schedule: Q04DX003 (ip), vehicle: saline with Tween-80) was 96 % of control, the T/C [5] was 100 % of control and the T/C (dose: 25.0 mg/kg/injection, schedule: Q04DX003 (ip), vehicle: saline with Tween-80) was 88 % of control.

COc1ccc2c(c1OC)C(=O)O[C@@H]2[C@H]1c2cc3c(cc2CCN1C)OCO3 was tested, and the T/C [6] was 112 % of control, the T/C [7] was 108 % of control and the T/C (dose: 40.0 mg/kg/injection, schedule: Q01DX009 (ip), vehicle: saline) was 98 % of control. For the same compound, the T/C (dose: 80.0 mg/kg/injection, schedule: Q01DX009 (ip), vehicle: saline) was 109 % of control.

For COc1cc(O)c(Cc2ccccc2O)c(O)c1C(=O)CCc1ccccc1, the T/C (dose: 1.25 mg/kg/injection, schedule: Q01DX009 (ip), vehicle: other) was 100 % of control, the T/C (dose: 2.5 mg/kg/injection, schedule: Q01DX009 (ip), vehicle: other) was 100 % of control and the T/C (dose: 5.0 mg/kg/injection, schedule: Q01DX009 (ip), vehicle: other) was 92 % of control. For the same compound, the T/C (dose: 10.0 mg/kg/injection, schedule: Q01DX009 (ip), vehicle: other) was 100 % of control.

In the case of Cc1cc(Cl)ccc1OCC(=O)Nc1nc(N)nc(N)n1, the T/C (dose: 12.5 mg/kg/injection, schedule: Q04DX009 (ip), vehicle: Klucel (hydroxypropylcellulose) (HPC)) is reported as 88 % of control, the T/C (dose: 25.0 mg/kg/injection, schedule: Q04DX009 (ip), vehicle: Klucel (hydroxypropylcellulose) (HPC)) is reported as 92 % of control and the T/C (dose: 50.0 mg/kg/injection, schedule: Q04DX009 (ip), vehicle: Klucel (hydroxypropylcellulose) (HPC)) is reported as 87 % of control.

CC(=O)NC(=O)Nc1ccccc1 was tested, and the T/C [8] was 97 % of control, the T/C [9] was 95 % of control and the T/C [10] was 100 % of control.

In the case of CC(=O)OC1CCC2(C)C(CCC3C2C(=O)C(OC(C)=O)C2(C)C3CC3OC4(CCC(C)CO4)C(C)C32)C1 (centres undefined), the T/C (dose: 1.56 mg/kg/injection, schedule: Q01DX009 (ip), vehicle: saline with Tween-80) is reported as 98 % of control, the T/C (dose: 3.13 mg/kg/injection, schedule: Q01DX009 (ip), vehicle: saline with Tween-80) is reported as 108 % of control and the T/C [3] is reported as 91 % of control and 93 % of control. The T/C [5] was 89 % of control.

In the case of NC(=NCc1ccccc1)c1ccc(N=C(N)c2ccc(C(N)=Nc3ccc(C(N)=NCc4ccccc4)cc3)cc2)cc1, the T/C (dose: 2.5 mg/kg/injection, schedule: Q01DX009 (ip), vehicle: saline) is reported as 97 % of control, the T/C (dose: 5.0 mg/kg/injection, schedule: Q01DX009 (ip), vehicle: saline) is reported as 96 % of control and the T/C [6] is reported as 92 % of control. For the same compound, the T/C [7] was 96 % of control.

In the case of Oc1ccccc1OCc1ccccc1, the T/C [8] is reported as 107 % of control, the T/C [9] is reported as 105 % of control and the T/C [10] is reported as 105 % of control.

O=C1Cc2cc3c(cc2C=C2CCCN12)OCO3 was tested, and the T/C (dose: 12.5 mg/kg/injection, schedule: Q01DX009 (ip), vehicle: water) was 117 % of control, the T/C (dose: 25.0 mg/kg/injection, schedule: Q01DX009 (ip), vehicle: water) was 108 % of control and the T/C (dose: 50.0 mg/kg/injection, schedule: Q01DX009 (ip), vehicle: water) was 102 % of control. For the same compound, the T/C (dose: 100.0 mg/kg/injection, schedule: Q01DX009 (ip), vehicle: water) was 107 % of control.

For COc1ccc(C=Nc2ccc(Cl)cc2)cc1, the T/C [2] was 104 % of control, the T/C [1] was 103 % of control and the T/C [11] was 106 % of control.

O=C1C2(Cl)C3(Cl)C4(Cl)C(Cl)(Cl)C5(Cl)[C@]3(Cl)C1(Cl)[C@]5(Cl)C24Cl (some centres undefined) was tested, and the T/C (dose: 3.12 mg/kg/injection, schedule: Q01DX009 (ip), vehicle: Klucel (hydroxypropylcellulose) (HPC)) was 97 % of control, the T/C (dose: 6.25 mg/kg/injection, schedule: Q01DX009 (ip), vehicle: Klucel (hydroxypropylcellulose) (HPC)) was 105 % of control and the T/C [3] was 102 % of control. The T/C (dose: 12.5 mg/kg/injection, schedule: Q01DX009 (ip), vehicle: Klucel (hydroxypropylcellulose) (HPC)) was 98 % of control, the T/C [4] was 106 % of control and the T/C [12] was 110 % of control.

In the case of ClN=C(c1ccccc1)c1ccccc1, the T/C [12] is reported as 105 % of control and the T/C [2] is reported as 105 % of control.

For NC(=O)c1ccccc1NC(=O)Nc1ccccc1, the T/C [1] was 89 % of control, the T/C [11] was 91 % of control and the T/C (dose: 400.0 mg/kg/injection, schedule: Q01DX009 (ip), vehicle: Klucel (hydroxypropylcellulose) (HPC)) was 89 % of control.

COc1cc([C@@H]2c3cc4c(cc3[C@H](O)[C@H]3COC(=O)[C@H]23)OCO4)cc(OC)c1OC was tested, and the T/C (dose: 2.0 mg/kg/injection, schedule: Q01DX009 (ip), vehicle: saline) was 102 % of control, the T/C (dose: 4.0 mg/kg/injection, schedule: Q01DX009 (ip), vehicle: saline) was 109 % of control and the T/C (dose: 8.0 mg/kg/injection, schedule: Q01DX009 (ip), vehicle: saline) was 104 % of control.

CC(=O)OCC1OC(S[As](C)C)C(OC(C)=O)C(OC(C)=O)C1OC(C)=O (centres undefined) was tested, and the T/C [2] was 107 % of control and the T/C [1] was 96 % of control.

With CCOc1ccc(NC(=O)OCCN2CCN(CCc3ccccc3)C(C)C2)cc1 (centres undefined) the T/C [5] was 108 % of control, the T/C (dose: 50.0 mg/kg/injection, schedule: Q01DX009 (ip), vehicle: saline with Tween-80) was 113 % of control and the T/C (dose: 100.0 mg/kg/injection, schedule: Q01DX009 (ip), vehicle: saline with Tween-80) was 101 % of control.
